One experiment deals with T1, ATP-citrate lyase (ACLY) (Homo sapiens, UniProt P53396).
T1 construct: purchased BPS Bioscience
T1 sequence (P53396 1-1101): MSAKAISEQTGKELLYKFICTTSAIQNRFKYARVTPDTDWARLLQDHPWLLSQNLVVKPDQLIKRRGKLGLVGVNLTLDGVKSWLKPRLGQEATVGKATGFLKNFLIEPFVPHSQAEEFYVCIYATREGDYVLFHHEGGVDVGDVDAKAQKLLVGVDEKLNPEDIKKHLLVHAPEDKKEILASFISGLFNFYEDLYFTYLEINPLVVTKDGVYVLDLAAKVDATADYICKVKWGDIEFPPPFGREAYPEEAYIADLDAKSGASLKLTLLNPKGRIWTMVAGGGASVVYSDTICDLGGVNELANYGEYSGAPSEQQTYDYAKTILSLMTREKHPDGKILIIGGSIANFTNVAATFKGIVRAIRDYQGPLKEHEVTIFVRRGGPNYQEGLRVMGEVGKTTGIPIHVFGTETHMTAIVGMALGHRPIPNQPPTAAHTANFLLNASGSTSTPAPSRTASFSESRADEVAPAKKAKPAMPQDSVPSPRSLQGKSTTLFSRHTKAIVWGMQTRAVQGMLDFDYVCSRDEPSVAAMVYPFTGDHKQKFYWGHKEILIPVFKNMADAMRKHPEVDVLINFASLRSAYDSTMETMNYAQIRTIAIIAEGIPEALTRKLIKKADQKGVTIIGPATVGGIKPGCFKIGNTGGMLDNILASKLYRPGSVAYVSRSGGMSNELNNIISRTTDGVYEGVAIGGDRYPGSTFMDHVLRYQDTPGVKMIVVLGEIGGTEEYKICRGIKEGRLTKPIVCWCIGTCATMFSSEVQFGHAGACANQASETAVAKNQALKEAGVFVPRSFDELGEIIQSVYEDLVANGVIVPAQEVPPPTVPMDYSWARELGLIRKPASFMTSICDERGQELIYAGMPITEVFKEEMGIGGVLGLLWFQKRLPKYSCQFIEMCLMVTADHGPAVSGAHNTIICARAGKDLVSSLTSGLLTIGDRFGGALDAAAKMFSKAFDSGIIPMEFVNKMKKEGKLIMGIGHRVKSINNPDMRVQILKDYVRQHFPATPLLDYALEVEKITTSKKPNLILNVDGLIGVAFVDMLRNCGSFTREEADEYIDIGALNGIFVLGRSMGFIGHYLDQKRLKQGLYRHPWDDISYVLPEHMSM
In words: ACLY Assay Kit (ADP-Glo) enzymatic activity. The experiment is classed as biochemical. An excerpt:
An ACLY Assay Kit (BPS Bioscience) was used to evaluate GS27 against ATP-citrate lyase (ACLY) enzymatic activity. The ACLY Assay Kit is designed to measure ACLY activity for screening and profiling applications using ADP-Glo™ Kinase Assay as a detection reagent (Promega #V6930). The ADP-Glo™ Kinase Assay is a luminescent ADP detection assay that provides a universal, homogeneous, high-throughput screening method to measure kinase activity by quantifying the amount of ADP produced during a kinase reaction. Multiple (1, 10, 100, 250, 500, 1000, 2000 nM) GS27 concentrations were used to evaluate GS27 IC50 activity.

Experiment [1] relates to HeLa cervical cancer cells. In words: XTT cell growth assay, HeLa. The experiment is classed as cell-based, human. The settings on record: 24 h, NS = not statistically significant; for inhibition at 50 µM: Homo sapiens, HeLa, read-out: Effectiveness to suppress HeLa cell growth (cell growth inhibition). The essentials:
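HeLa cells in DMEM were plated and incubated 24 h, then exposed 24 h to compound at 5, 10 or 50 μM in serum-free DMEM. After 4 h with XTT reagent, formazan absorbance was read at 450 nm (630 nm reference); serum-free medium served as negative control.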

Setting [2] is: same assay as GS27, read-out: IC50 against ACLY enzyme.

The structures appear in SMILES notation. pIC50: −log10 of the molar value. Where two headings read alike, the source gives them in different places. Bounds are passed on as bounds.

On to `C/C=C(/C=O)[C@@H](CC=O)CC(=O)OCCc1ccc(O)cc1` [GS19, (3S,4E)-4-formyl-3-(2-oxoethyl)-4-hexenoic acid 2-(4-hydroxyphenyl)ethyl ester, reference compound], for which the pIC50 on ATP-citrate lyase (ACLY) (setting [2]) is under 5.00. The inhibition at 50 µM in experiment [1] was determined as 79.1%.

As to `C/C=C(/C=O)[C@@H](CC=O)CC(=O)SCCc1ccccc1` [GS27, S-phenethyl (3S,4E)-4-formyl-3-(2-oxoethyl)hex-4-enethioate], the pIC50 on ATP-citrate lyase (ACLY) (1-2000 nM tested, read-out: IC50 of ACLY activity) was 7.09. Further, in experiment [1], the inhibition at 50 µM worked out at 39%. Regarding `C/C=C1/[C@H](OC2OC(CO)C(O)C(O)C2O)OC=C(C(=O)O)[C@H]1CC(=O)OCCc1ccc(O)c(O)c1` (stereo in doubt) [GS6, (2S,4S,E)-4-(2-(3,4-dihydroxyphenethoxy)-2-oxoethyl)-3-ethylidene-2{[(2R,3S,4R,5R,6S)-3,4,5-trihydroxy-6-(hydroxymethyl)tetrahydro-2H-pyran-2-yl]oxy}-3,4dihydro-2H-pyran-5-carboxylic acid], in experiment [1], the inhibition at 50 µM is 48%. With `C/C=C(/C=O)[C@@H](CC=O)CC(=O)OCCOc1ccccc1` [GS24, (3S,4E)-4-formyl-3-(2-oxoethyl)-4-hexenoic acid 2-phenoxyethyl ester], the inhibition at 50 µM in experiment [1] worked out at 66.6%. Consider `C/C=C1/[C@H](O[C@@H]2O[C@H](CO)[C@@H](O)[C@H](O)[C@H]2O)OC=C(C(=O)OC)[C@H]1CC(=O)OCCc1ccc(O)c(O)c1` [GS1, oleuropein], for which, on ATP-citrate lyase (ACLY) (setting [2]), the pIC50 was under 5.00. Regarding `C/C=C(/C=O)[C@@H](CC=O)CC(=O)OCCCSC` [GS28, (3S,4E)-4-formyl-3-(2-oxoethyl)-4-hexenoic acid 3-(methylthio)propyl ester], in experiment [1] (50 uM), the “Effectiveness to suppress HeLa cell growth (cell growth inhibition)” value is “best efficacy”. In addition, the inhibition at 50 µM in experiment [1] was found to be 81%.

(Values after US12414960B2, “Analogues of oleuropein and oleacein and uses thereof” (Attica Sciences Ltd., priority 2020, dated 2025).)
